Assay results taken from DBAASP.
≈ marks a conversion by molar mass, not a printed value.

Legend:
Assay in all cases: ≥ marks a high value that may be exact or a test limit, other limits are often not marked, values filed in µg/mL are converted to µM
[1] = test system: Batrachochytrium dendrobatidis
[2] = test system: Bacillus subtilis ATCC 6633
[3] = test system: Escherichia coli ATCC 25922
[4] = test system: Klebsiella pneumoniae ATCC 10031
[5] = test system: Micrococcus luteus ATCC 10240
[6] = test system: Pseudomonas aeruginosa ATCC 27853
[7] = test system: Salmonella enterica subsp. enterica serovar Typhimurium ATCC 14028
[8] = test system: Shigella dysenteriae ATCC 9752
[9] = test system: Staphylococcus aureus ATCC 6538P
[10] = test system: Staphylococcus aureus TK784
[11] = test system: Staphylococcus epidermidis ATCC 12228
[12] = test system: Staphylococcus aureus NCTC 8325

Row | Structure (SMILES) | MIC [1] [µM] | MIC [2] [µM] | MIC [3] [µM] | MIC [4] [µM] | MIC [5] [µM] | MIC [6] [µM] | MIC [7] [µM] | MIC [8] [µM] | MIC [9] [µM] | MIC [10] [µM] | MIC [11] [µM] | MIC [12] [µM]
1 | CC[C@H](C)[C@H](NC(=O)[C@@H](NC(=O)[C@@H]1CCCN1C(=O)[C@H](CC(C)C)NC(=O)[C@@H](N)Cc1ccccc1)[C@@H](C)CC)C(=O)N[C@@H](C)C(=O)N[C@@H](CO)C(=O)N[C@@H](CC(C)C)C(=O)N[C@@H](CC(C)C)C(=O)N[C@@H](CO)C(=O)N[C@@H](CCCCN)C(=O)N[C@@H](CC(C)C)C(=O)N[C@@H](CC(C)C)C(N)=O [FLPIIASLLSKLL] | ≥ 32.2 | – | – | – | – | – | – | – | – | – | – | –
2 | CC(C)C[C@H](NC(=O)[C@H](Cc1c[nH]c2ccccc12)NC(=O)[C@H](CCCCN)NC(=O)[C@H](CCCCN)NC(=O)[C@H](CC(C)C)NC(=O)[C@H](Cc1c[nH]c2ccccc12)NC(=O)[C@H](CCCCN)NC(=O)[C@@H](N)CC(C)C)C(=O)N[C@@H](CCCCN)C(N)=O [LKWLKKWLK] | – | ≥ 32.2 | 32.2 (≈ 40 µg/mL) | ≥ 64.4 | ≥ 64.4 | 32.2 (≈ 40 µg/mL) | > 64.4 | ≥ 64.4 | 8.05 (≈ 9.99 µg/mL) | ≥ 64.4 | 32.2 (≈ 40 µg/mL) | –
3 | CC[C@H](C)[C@H](NC(=O)CN)C(=O)N[C@@H](CC(C)C)C(=O)N[C@@H](CO)C(=O)N[C@H](C(=O)N[C@@H](Cc1ccccc1)C(=O)N[C@@H](CCCCN)C(=O)NCC(=O)N[C@@H](CC(C)C)C(=O)N[C@@H](C)C(=O)N[C@@H](CCCCN)C(=O)NCC(=O)N[C@H](C(=O)N[C@@H](C)C(=O)N[C@@H](CCCCN)C(=O)N[C@@H](CC(=O)O)C(=O)N[C@@H](CC(C)C)C(=O)N[C@@H](C)C(=O)NCC(=O)N[C@@H](CC(N)=O)C(=O)N[C@@H](CC(C)C)C(=O)N[C@@H](CC(C)C)C(=O)N[C@@H](CC(=O)O)C(=O)N[C@@H](CCCCN)C(=O)N[C@@H](Cc1ccccc1)C(=O)N[C@@H](CCCCN)C(=O)N[C@H]1CSSC[C@@H](C(=O)O)NC(=O)CNC(=O)[C@H]([C@@H](C)O)NC(=O)[C@H]([C@@H](C)CC)NC(=O)[C@H](CCCCN)NC1=O)C(C)C)[C@@H](C)O [GILSTFKGLAKGVAKDLAGNLLDKFKCKITGC] | 25 (≈ 82.7 µg/mL) | – | 7 (≈ 23.2 µg/mL) | – | – | – | – | – | – | – | – | 27 (≈ 89.3 µg/mL)
4 | CC(C)C[C@H](NC(=O)[C@H](CC(C)C)NC(=O)[C@H](CCCCN)NC(=O)[C@H](CCCCN)NC(=O)[C@H](CC(C)C)NC(=O)[C@H](CC(C)C)NC(=O)[C@H](CCCCN)NC(=O)[C@H](CCCCN)NC(=O)[C@H](CC(C)C)NC(=O)[C@@H](N)Cc1c[nH]c2ccccc12)C(=O)N[C@@H](CCCCN)C(N)=O [WLKKLLKKLLK] | – | 1.42 (≈ 2 µg/mL) | 2.84 (≈ 4 µg/mL) | 1.42 (≈ 2 µg/mL) | 2.84 (≈ 4 µg/mL) | 5.67 (≈ 7.99 µg/mL) | 1.42 (≈ 2 µg/mL) | 1.42 (≈ 2 µg/mL) | 1.42 (≈ 2 µg/mL) | 5.67 (≈ 7.99 µg/mL) | 1.42 (≈ 2 µg/mL) | –
5 | CC(C)C[C@H](NC(=O)[C@H](CCCCN)NC(=O)[C@H](CCCCN)NC(=O)[C@H](CC(C)C)NC(=O)[C@H](Cc1c[nH]c2ccccc12)NC(=O)[C@H](CCCCN)NC(=O)[C@H](CC(C)C)NC(=O)[C@H](CC(C)C)NC(=O)[C@H](CCCCN)NC(=O)[C@H](CCCCN)NC(=O)[C@@H](N)CC(C)C)C(N)=O [LKKLLKWLKKL] | – | 1.42 (≈ 2 µg/mL) | 1.42 (≈ 2 µg/mL) | 1.42 (≈ 2 µg/mL) | 2.84 (≈ 4 µg/mL) | 5.67 (≈ 7.99 µg/mL) | 2.84 (≈ 4 µg/mL) | 1.42 (≈ 2 µg/mL) | 1.42 (≈ 2 µg/mL) | 11.3 (≈ 16 µg/mL) | 1.42 (≈ 2 µg/mL) | –
